Each block holds one compound with its values, some of them ahead of it. Where a SMILES comes first, the peptide text is derived from it. Bridges are numbered along the chain shown (N, C = ends). [ ]: non-standard residue; d: D form. Trp(1-CH2COOH) = N[C@@H](Cc1cn(CC(=O)O)c2ccccc12)C(=O)O; Hyp = O=C(O)[C@@H]1C[C@@H](O)CN1; NMeNle = CCCC[C@H](NC)C(=O)O; NMeA = CN[C@@H](C)C(=O)O; Dab = NCC[C@H](N)C(=O)O; Dap = NC[C@H](N)C(=O)O; Sar = CNCC(=O)O
Tests used:
[1] = Binding affinity to Hsp90 (unknown origin) expressed in Escherichia coli BL21 (DE3) cells assessed as inhibition constant by NMR STD analysis; parameters: species or system Homo sapiens
[2] = Binding affinity to human recombinant Hsp90 expressed in Escherichia coli BL21 (DE3) cells assessed as dissociation constant
[3] = target: Stimulator of interferon genes protein (Homo sapiens, UniProt Q86WV6); assay: Binding affinity to N-terminal His-tagged wild type human STING CTD ([…]) expressed in Escherichia coli BL21 (DE3) cells assessed as dissociation constant by NMR analysis
Sequence of Stimulator of interferon genes protein (Q86WV6 whole entry): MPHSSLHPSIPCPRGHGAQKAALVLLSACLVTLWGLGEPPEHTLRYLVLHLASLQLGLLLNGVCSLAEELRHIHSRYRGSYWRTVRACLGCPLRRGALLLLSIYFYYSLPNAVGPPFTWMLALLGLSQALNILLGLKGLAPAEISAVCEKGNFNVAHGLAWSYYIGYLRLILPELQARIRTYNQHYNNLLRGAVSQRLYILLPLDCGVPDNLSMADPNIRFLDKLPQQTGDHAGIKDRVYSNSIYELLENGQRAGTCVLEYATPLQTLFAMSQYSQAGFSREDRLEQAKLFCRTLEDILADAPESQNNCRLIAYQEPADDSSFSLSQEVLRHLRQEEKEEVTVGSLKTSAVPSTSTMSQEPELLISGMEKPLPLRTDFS

[4] = Binding affinity to human Hsp90 expressed in Escherichia coli BL21 (DE3) cells assessed as inhibition constant
[5] = target: T1, Programmed cell death protein 1/Programmed cell death 1 ligand 1 (Homo sapiens, UniProt Q15116+Q9NZQ7); assay: Inhibition of PD-1/PD-L1 (unknown origin) protein-protein interaction incubated for 1 hr by HTRF assay; assay type: protein-complex assay
T1 sequence (Q15116 whole entry): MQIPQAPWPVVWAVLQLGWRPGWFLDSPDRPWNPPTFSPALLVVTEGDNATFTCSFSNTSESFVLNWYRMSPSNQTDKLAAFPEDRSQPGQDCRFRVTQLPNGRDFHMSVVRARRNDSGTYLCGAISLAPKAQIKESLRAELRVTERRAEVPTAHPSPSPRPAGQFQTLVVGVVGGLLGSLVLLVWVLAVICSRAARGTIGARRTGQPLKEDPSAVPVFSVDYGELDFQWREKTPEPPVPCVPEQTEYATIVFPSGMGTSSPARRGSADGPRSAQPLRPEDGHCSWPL
T1 sequence (Q9NZQ7 whole entry): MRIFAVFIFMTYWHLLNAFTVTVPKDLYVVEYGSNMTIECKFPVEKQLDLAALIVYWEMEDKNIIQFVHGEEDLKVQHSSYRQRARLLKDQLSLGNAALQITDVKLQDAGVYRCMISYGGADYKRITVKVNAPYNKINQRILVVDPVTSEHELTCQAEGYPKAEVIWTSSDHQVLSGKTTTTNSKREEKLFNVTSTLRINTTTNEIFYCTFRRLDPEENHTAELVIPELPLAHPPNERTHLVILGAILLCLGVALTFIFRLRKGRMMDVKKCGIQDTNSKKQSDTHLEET

[6] = target: T1, Programmed cell death protein 1/Programmed cell death 1 ligand 1; assay: Inhibition of PD-1/PD-L1 (unknown origin) interaction expressed in human HEK293T cells by HTRF analysis; assay type: cell-based
[7] = target: T1, Programmed cell death protein 1/Programmed cell death 1 ligand 1; assay: Inhibition of PD-1/PD-L1 (unknown origin) protein-protein interaction expressed in HEK293 cells by HTRF method; assay type: cell-based
[8] = Binding affinity to Hsp90 (unknown origin) assessed as dissociation constant; parameters: species or system Homo sapiens
[9] = Oral bioavailability in mouse at 2 mg/kg; assay type: ADME, organism-based; conditions: in vivo
[10] = Oral bioavailability in rat at 2 mg/kg by LC-MS/MS analysis; assay type: ADME, organism-based; conditions: in vivo
[11] = Oral bioavailability in Beagle dog at 2 mg/kg; assay type: ADME, organism-based, Canis lupus familiaris; conditions: in vivo
[12] = Oral bioavailability in monkey at 5 mg/kg; assay type: ADME, organism-based, Macaca mulatta; conditions: rhesus monkey, in vivo

SMILES: O=C(NS(=O)(=O)c1ccc(NCCSc2ccccc2)c([N+](=O)[O-])c1)c1ccc(-c2ccc(F)cc2)cc1
Ki [1]: 0.036 µM

SMILES: Oc1ccc(-c2ccccc2)cc1
Kd [2]: 6000 µM

SMILES: Oc1cccc2c1CCCC2
Kd [2]: 4300 µM

Kd [3]: 18 µM
SMILES: COc1cc2cc(C(=O)CCC(=O)O)sc2cc1OC

SMILES: CN(C)CC[C@H](CSc1ccccc1)Nc1ccc(S(=O)(=O)NC(=O)c2ccc(N3CCN(Cc4ccccc4-c4ccc(Cl)cc4)CC3)cc2)cc1[N+](=O)[O-] [ABT 737]
Ki [4]: < 0.001 µM

SMILES: CCCC[C@H]1C(=O)N(C)[C@@H](CCCC)C(=O)N[C@@H](CCCNC(=N)N)C(=O)N[C@H](C(=O)NCC(N)=O)CSCC(=O)N[C@@H](Cc2ccccc2)C(=O)N(C)[C@@H](C)C(=O)N[C@@H](CC(N)=O)C(=O)N2CCC[C@H]2C(=O)N[C@@H](Cc2c[nH]cn2)C(=O)N[C@@H](CC(C)C)C(=O)N(C)CC(=O)N[C@@H](Cc2c[nH]c3ccccc23)C(=O)N[C@@H](CO)C(=O)N[C@@H](Cc2c[nH]c3ccccc23)C(=O)N1C ({CH2CO}-F[NMeA]NPHL[Sar]WSW[NMeNle][NMeNle]RCG-NH2; thioether N-14)
IC50 [5]: 0.009 µM | IC50 [6]: 0.06 µM

SMILES: CCCC[C@H]1C(=O)N(C)[C@@H](CCCC)C(=O)N[C@@H](CC(C)C)C(=O)N[C@H](C(=O)NCC(N)=O)CSCC(=O)N[C@@H](Cc2ccc(O)cc2)C(=O)N(C)[C@@H](C)C(=O)N[C@@H](CC(N)=O)C(=O)N2CCC[C@H]2C(=O)N[C@@H](CN)C(=O)N[C@@H](CC(C)C)C(=O)N2C[C@H](O)C[C@H]2C(=O)N[C@@H](Cc2c[nH]c3ccccc23)C(=O)N[C@@H](CCN)C(=O)N[C@@H](Cc2cn(CC(=O)O)c3ccccc23)C(=O)N1C ({CH2CO}-Y[NMeA]NP[Dap]L[Hyp]W[Dab][Trp(1-CH2COOH)][NMeNle][NMeNle]LCG-NH2; thioether N-14)
IC50 [7]: 0.00027 µM

Kd [8]: 177 µM
SMILES: Cc1cccc(C2c3[nH]c4ccccc4c3CC3C(=O)N(c4ccccc4C(=O)O)C(=O)N32)c1 (stereo not given)

SMILES: O=C(O)c1ccc(-c2ccc(F)cc2)cc1
Kd [2]: 300 µM

SMILES: O=C(O)c1ccc(-c2ccc(F)cc2)cc1/C=C/c1cccc(-c2ccccc2)c1
Ki [1]: 1.4 µM

bioavailability [9]: 29.7% | bioavailability [10]: 29.7% | bioavailability [11]: 29.7% | bioavailability [12]: 8%
SMILES: COc1cccc(Nc2ncnn3ccc(CN4CC[C@@H](N)[C@@H](O)C4)c23)c1

From ChEMBL document CHEMBL5537202, “Perspectives on Nuclear Magnetic Resonance Spectroscopy in Drug Discovery Research” (J Med Chem, 2024)
